Measured values reported in patent US20170072012A1, “USE OF GSMTX4 TO REDUCE ISCHEMIA REPERFUSION INJURY” (priority 2014, published 2017).

How the values were obtained:
[1] = system: ischemic reperfusion injury in mouse heart; assay type: in vivo, C57B1/6J mice; settings: 0.4 mg/kg tail vein 5 min before reperfusion; 4 h reperfusion; vehicle 16.5±1.2%; not statistically significant
Description: Acute GsMTx4-D treatment: All animal protocols in this study were approved by the Institutional Animal Care and Use Committee of the University at Buffalo-State University of New York. C57B1/6J mice were anesthetized with 80 mg/kg of sodium pentobarbital (Sigma, St. Louis, Mo.) via intraperitoneal injection (IP), intubated and ventilated with a respirator (Harvard apparatus, Holliston, Mass., USA) 17. Upon absence of a pedal reflex, surgery was performed under a stereomicroscope. Core body temperature was maintained at 37° C. with a heating pad. After a left lateral thoracotomy, the left anterior descending coronary artery (LAD) was occluded just underneath the left atrium for 20 min with an 8-0 nylon suture. […] A small piece of gauze was used to prevent arterial injury. After 20 min the ligature was removed and the tissue was reperfused for up to 4 h before euthanizing. Three different doses of GsMTx4-D (0.1, 1, 10 mg/kg), verapamil (0.4 mg/kg) or vehicle (saline 50 μL) were administered via tail vein injection 5 min before reperfusion (during induced ischemia). ECGs confirmed the hallmark ischemic ST segment elevation during coronary occlusion (AD Instruments, Colorado Springs, CO, USA). Each group included 5 independent experiments. At the conclusion of the study, mice were euthanized by IP injection of 270 mg/kg pentobarbital. GsMTx4-D pretreatment: To evaluate the effect of GsMTx4-D pretreatment, GsMTx4-D (50 mg/kg) or vehicle (saline 50 μL) were administered via IP injection once daily for 2 days prior to surgery. Ischemia was then elicited with the same 20 min coronary occlusion followed by 24 h reperfusion. Following reperfusion, the chest was closed in layers. A drop of lidocaine was put on the suture site and the mouse was slowly weaned off the ventilator when they resumed spontaneous breathing. The mouse was returned to its cage and kept warm and medicated for pain (buprenorphine). Each group included 5 independent experiments.
To measure infarct size, hearts were harvested and excised for dual staining at the conclusion of reperfusion. The non-necrotic tissue in the ischemic region was stained red with 2,3,5- triphenyltetrazolium (TTC) and non-ischemic regions were stained blue with Evans blue. The hearts were fixed and sectioned into 1 mm slices, photographed with a Lexica MZ95 microscope and analyzed with NIH ImageJ software (http://imagej.nih.gov/ij/) 19. The infarct size was calculated as the ratio of the percentage of myocardial necrosis to the ischemic Area At Risk (AAR).
To test whether GsMTx4-D protected the heart against reperfusion injury, we first tested three different doses of the peptide. The positive control was verapamil, a voltage-gated calcium channel inhibitor with established cardioprotective effects on IRI. C57B1/6 mice were subjected to 20 min occlusion of the LAD followed by 4 hours of reperfusion. Three different concentrations of GsMTx4-D (0.1, 1 and 10 mg/kg), verapamil (0.4 mg/kg), or vehicle (saline) were administered through tail vein injection 5 min before reperfusion. […] At the conclusion of reperfusion, the hearts were stained with TTC and Evans Blue (FIG. 2A). […] The verapamil group also had lower infarction size (14.0±0.4%), but the difference wasn't statistically significant. […] To evaluate whether pretreatment with GsMTx4-D could also protect the heart from I/R injury, GsMTx4-D (50 mg/kg) or vehicle (saline 50 μL) were administered daily via IP injection, for 2 days prior to I/R surgery. As before, ischemia was induced from 20 min LAD occlusion, but reperfusion was allowed to continue for 24 hrs. The chest was closed in layers, and animals were weaned off the ventilator when they resumed spontaneous breathing. […] The ratios of AAR to total myocardial area between the two groups were equal as determined by TTC and Evans Blue staining (FIG. 3A and B). […]

[2] = system: I/R induced arrhythmias in mouse heart; experiment: Heart rhythm analysis (ECG) during reperfusion, I/R induced arrhythmia; assay type: in vivo, C57B1/6J mice; settings: 0.4 mg/kg IV 5 min before reperfusion; vehicle 14.9±4.5; not significantly different
Description: During reperfusion we continuously recorded ECGs, from which mean heart rate, PR, QRS, and QT intervals were derived for each animal. We evaluated the incidence of arrhythmias by counting the incidences of arrhythmias including ventricular and supraventricular premature beats by summing the number of episodes based on limb lead recordings for 15 min after reperfusion. Ventricular premature beats are considered more severe. Each group contained 5 to 7 independent experiments (vehicle n=7, verapamil n=6, GsMTx4-D 0.1mg/kg n=5, 1 mg/kg n=6 and 10 mg/kg n=5).
Heart rate and rhythm were monitored by ECG to confirm the hallmark ischemic ST-segment elevation during coronary occlusion, and the gradually increasing inversion of the T-wave during reperfusion (FIG. 4A). Since generation of arrhythmias is a good indicator of the level of I/R damage, we counted ventricular and supraventricular premature beats occurring within 15 min of reperfusion (FIG. 4B). No ventricular tachycardia was observed during 20 min ischemia and 15 min reperfusion in the mouse heart. […] Considering that ventricular premature beats are indicative of more severe damage, the incidence of this specific arrhythmia was analyzed separately (FIG. 4 D). […] There was no difference in mean heart rate before ischemia (FIG. 4E). […] There was no difference in PR, QRS or QT intervals after treatment in all groups (data not shown).

## COc1ccc(CCN(C)CCCC(C#N)(c2ccc(OC)c(OC)c2)C(C)C)cc1OC (centres unmarked) [verapamil, reference compound]
[1]
  infarction size (infarct area / AAR): 14.0±0.4%
[2]
  total incidence of arrhythmias (ventricular and supraventricular premature beats): 5.7±1.2 incidence/15 min reperfusion
